From publication PMC7177633, “Effective Cellular Transport of Ortho-Halogenated Sulfonamide Derivatives of Metformin Is Related to Improved Antiproliferative Activity and Apoptosis Induction in MCF-7 Cells” (International Journal of Molecular Sciences, 2020)
Read-outs that look alike come from different tables or passages of the source.

Columns and labels:
[1] = system: MCF-7 cells; test: Uptake in the presence of OCT and MATE inhibitors, MCF-7 cells; type: in vitro ADME, human; conditions: for interactions with OCT, PMAT and MATE1 transporters, MCF-7: summary from uptake with inhibitors
Method: (§1) The uptake of sulfonamide derivatives of metformin (1–9) in MCF-7 and MDA-MB-231 cells was studied also in the presence of disopyramide, cimetidine (OCT1 and 3 inhibitors), lopinavir (OCT and PMAT inhibitor) and methenamine (MATE and OCT2 inhibitors). The cells were incubated (37 °C, 10 min) with compounds 1–9 at concentrations of 400 and 800 μmol/L and inhibitors (disopyramide, cimetidine, lopinavir or methenamine) in 250 μL of prewarmed HBSS buffer. The protocol of determination of the compound concentration was as described above.

[2] = system: MCF-7 cells; test: Cellular uptake of metformin sulfonamides in MCF-7 cells (HPLC); type: in vitro ADME, human; conditions: for uptake into MCF-7 cells: 10 min incubation, 37 °C
Method: (§2) The uptake of metformin sulfonamides (1–9) in MCF-7 and MDA-MB-231 cells was studied by incubation of the cells with 10−3000 μmol/L of compounds in 250 μL of prewarmed HBSS buffer at 37 °C for 10 min. Subsequently, the cells were then washed three times with 500 μL of ice-cold HBSS and lysed with 250 μL of 0.1-M NaOH. The samples were collected, centrifuged (5 min, 1400 rpm) and the supernatants were analyzed by the HPLC method. The concentration of each compound in the cells was calculated on the basis of the standard curve prepared by spiking known amounts of every compound on the cell layers in 250 μL of 0.1-M NaOH.
(§3) The concentration of the studied sulfonamides (1–9) was assessed using the HPLC system, consisting of an Agilent 1100 binary pump (Agilent Technologies Inc., Wilmington, DE, USA), an 1100 micro-vacuum degasser, an HP 1050 autosampler and an HP 1050 variable wavelength detector (operated at 235 nm). The chromatographic separations of compounds 1–9 were conducted on an Agilent Zorbax SB-C18 analytical column (4.6 mm × 150 mm, 5 μm) using an isocratic elution of water containing 0.1% formic acid (pH ca. 3.0) and acetonitrile containing 0.1% formic acid with a changing ratio, depending on the compound. The analyses were conducted at room temperature (RT). The detailed procedure of chromatographic analysis was described in our previous paper. The studies were conducted in quadruplicates.
(§4) The protein concentrations in representative wells of each plate were assessed using a Bio-Rad protein assay according to the Bradford method (EnVision, PerkinElmer, Inc., Waltham, MA, USA).

[3] = system: OCTs; test: Inhibition of [14C]choline uptake in MCF-7 cells (competitive inhibition assay); type: cell-based, human; conditions: mean ± SD (n = 3)
Method: (§5) The following day, after removal of the culture medium, the cells were carefully washed with prewarmed HBSS (Hanks’ balanced salt solution) containing 125 mM NaCl, 4.8 mM KCl, 1.2 mM MgSO4, 1.2 mM KH2PO4, 1.3 mM CaCl2, 5.6 mM glucose and 25 mM HEPES (pH 7.4). […] Then, the cells were washed three times with ice-cold HBSS (500 μL) and were lysed with 250 μL of 0.1-M NaOH in the ice bath, and the lysate was mixed with 1.0 mL of an emulsifier safe cocktail (PerkinElmer, Waltham, MA, USA). The radioactivity was measured by liquid scintillation counting (MicroBeta^2 counter, PerkinElmer, Waltham, MA, USA). The studies were carried out with the use of at least three replicates from the same cell passage.

[4] = system: MCF-7 cells; test: Cell viability WST-1 assay, MCF-7; type: cell-based; conditions: Homo sapiens, MCF7; WST-1, 24 h, mean ± SD (n = 6–8); read-out: IC50 inhibition of MCF-7 cells' viability
Method: (§6) The viability of MCF-7 and MDA-MB-231 cells was determined using a colorimetric WST-1 assay (Takara, Takara Bio Europe, Saint-Germain-en-Laye, France). Both cell lines were seeded at a density of 1 × 10^4 per well on 96-well plates and were cultured for 24 h to obtain 70% confluence. The following day, the cells were treated with various concentrations of compounds 1–9 diluted in the cell culture medium ([…]). The cells were incubated with tested compounds or pure medium (control) for 24 h (37 °C, 5% CO2). Afterwards, the cells were washed with 100 μL of culture medium, and then, the reagent dissolved in the medium was added (100 μL). The plates were incubated at the standard condition for 1.5 h, and the absorbance was read at 450 nm using a microplate reader (iMARK, Bio-Rad, Bio-Rad Laboratories Inc., Hercules, CA, USA). […] The results of samples treated with the test compounds were expressed as a percentage of the control samples. The data were presented as mean ± standard deviation (SD), n = 8. IC50 values (the concentration of the tested compound that inhibited cell growth by 50%) were calculated using a concentration-response curve (GraphPad Prism, Software, San Diego, CA, USA).
(§7) The concentrations contributing to the 50% of cell growth inhibition (IC50) were calculated using nonlinear regression analysis (fitting the curve to log (concentration) vs. cellular response).

[5] = system: MDA-MB-231 cells; test: Cellular uptake of metformin sulfonamides in MDA-MB-231 cells (HPLC); type: in vitro ADME, human
Method: as §2, §3, §4

[6] = system: MDA-MB-231 cells; test: Uptake in the presence of OCT and MATE inhibitors, MDA-MB-231 cells; type: in vitro ADME, human; conditions: for interactions with OCT, PMAT and MATE1 transporters, MDA-MB-231: summary from uptake with inhibitors
Method: as §1

[7] = system: MDA-MB-231 cells; test: Cell viability WST-1 assay, MDA-MB-231; type: cell-based; conditions: Homo sapiens, WST-1, 24 h; for IC50: MDA-MB-231, mean ± SD (n = 6–8), read-out: IC50 inhibition of MDA-MB-231 cells' viability
Method: as §6, §7

[8] = system: OCTs; test: Inhibition of [14C]choline uptake in MDA-MB-231 cells (competitive inhibition assay); type: cell-based, human; conditions: mean ± SD (n = 3)
Method: as §5

[9] = compound and inhibitor 400 and 800 µmol/L, 10 min, 37 °C
[10] = Eadie-Hofstee analysis, transporter I
[11] = Eadie-Hofstee analysis, transporter I, read-out: Km, transporter I, MCF-7
[12] = Eadie-Hofstee analysis, transporter II
[13] = Eadie-Hofstee analysis, transporter II, read-out: Km, transporter II, MCF-7
[14] = Michaelis-Menten curve, read-out: Km MCF-7 (Michaelis Menten curves)
[15] = Eadie-Hofstee analysis, transporter I, read-out: Km, transporter I, MDA-MB-231
[16] = Eadie-Hofstee analysis, transporter II, read-out: Km, transporter II, MDA-MB-231
[17] = Michaelis-Menten curve, read-out: Km MDA-231 cells (Michaelis Menten curves)

| Compound | uptake in the presence of disopyramide, MCF-7 [1, 9] | uptake in the presence of lopinavir, MCF-7 [1, 9] | interactions with OCT, PMAT and MATE1 transporters, MCF-7 [1] | uptake into MCF-7 cells ([2]; 800 μmol/L) | Vmax, transporter I, MCF-7 [2, 10] | Km [2, 11] | Vmax, transporter II, MCF-7 [2, 12] | Km [2, 13] | Vmax MCF-7 (Michaelis Menten curves) ([2]; Michaelis-Menten curve) | Km [2, 14] | IC50 [3] | IC50 [4] | Vmax, transporter I, MDA-MB-231 [5, 10] | Km [5, 15] | Vmax, transporter II, MDA-MB-231 [5, 12] | Km [5, 16] | Vmax MDA-231 cells (Michaelis Menten curves) ([5]; Michaelis-Menten curve) | Km [5, 17] | interactions with OCT, PMAT and MATE1 transporters, MDA-MB-231 [6] | IC50 [8] | further results |
| --- | --- | --- | --- | --- | --- | --- | --- | --- | --- | --- | --- | --- | --- | --- | --- | --- | --- | --- | --- | --- | --- |
| CN(C)C(=N)N=C(N)NS(=O)(=O)c1cccc(Cl)c1 [Compound 2] | profoundly elevated | profoundly elevated | OCT1, OCT3, PMAT | 2.669 ± 0.040 nmol/min/mg protein | 19.2 ± 2.31 nmol/min/mg | 4.01 ± 0.696 mM | 24.91 ± 5.44 nmol/min/mg | 7.47 ± 1.82 mM | 34.4 ± 17.2 nmol/min/mg | 9.05 ± 1.52 mM | 2923 ± 9.1 µM | 533 ± 87.4 µM | 0.077 ± 0.008 nmol/min/mg | 2.4 ± 0.353 mM | 0.111 ± 0.016 nmol/min/mg | 5.47 ± 0.73 mM | 0.157 ± 0.129 nmol/min/mg | 6.75 ± 1.73 mM | OCT1, OCT3 | 4449 ± 18.1 µM | uptake in the presence of cimetidine, MCF-7 [1, 9]: inhibited; uptake in MCF-7 cells relative to metformin ([2]; fold higher than parent drug metformin, 800 μmol/L): approximately 25 fold; uptake in the presence of cimetidine, MDA-MB-231 [6, 9]: no significant differences; uptake in the presence of disopyramide, MDA-MB-231 [6, 9]: no significant differences; uptake in the presence of lopinavir, MDA-MB-231 [6, 9]: no significant differences; uptake in the presence of methenamine, MDA-MB-231 [6, 9]: no significant differences; IC50 [7]: 844 ± 135 µM |
| CN(C)C(=N)N=C(N)NS(=O)(=O)c1cccc(Br)c1 [Compound 5] | significantly reduced | increased | OCT1, MATE1, PMAT |  | 1.635 ± 0.21 nmol/min/mg | 3.62 ± 0.619 mM | 2.167 ± 0.196 nmol/min/mg | 6.85 ± 0.713 mM | 1.87 ± 0.95 nmol/min/mg | 4.94 ± 1.34 mM | 888 ± 11.4 µM | 106 ± 12.3 µM | 0.038 ± 0.004 nmol/min/mg | 0.468 ± 0.109 mM | 0.098 ± 0.011 nmol/min/mg | 1.07 ± 0.204 mM |  |  | OCT1, OCT3 | 593 ± 15 µM | uptake in the presence of methenamine, MCF-7 [1, 9]: increased; viability at 3000 µM ([7]; MDA-MB-231, 24 h, 3000 µmol/L, read-out: percentage of viability of MDA-MB-231 cells): ~60% |
| CN(C)C(=N)N=C(N)NS(=O)(=O)c1ccc(Br)cc1 [Compound 6] | significantly reduced | significantly decreased | OCT1, PMAT, MATE1 | 1.11 ± 0.16 nmol/min/mg protein | 0.7898 ± 0.12 nmol/min/mg | 0.308 ± 0.102 mM | 13.64 ± 1.55 nmol/min/mg | 8.93 ± 1.1 mM |  |  | 2060 ± 58.4 µM | 1140 ± 139 µM | 2.644 ± 0.22 nmol/min/mg | 1.93 ± 0.223 mM | 2.091 ± 0.15 nmol/min/mg | 2.11 ± 0.172 mM | 4.044 ± 1.302 nmol/min/mg | 3.75 ± 1.6 mM | OCT1, OCT3, MATE1 | 2490 ± 211 µM | uptake in the presence of methenamine, MCF-7 [1, 9]: significantly decreased; uptake into MDA-MB-231 cells ([5]; 800 μmol/L, 10 min incubation, 37 °C): 0.75 ± 0.29 nmol/min/mg protein; uptake in the presence of cimetidine, MDA-MB-231 [6, 9]: significantly decreased; uptake in the presence of disopyramide, MDA-MB-231 [6, 9]: significantly decreased; uptake in the presence of methenamine, MDA-MB-231 [6, 9]: significantly decreased; IC50 [7]: 2110 ± 137 µM |
